Test results published in US8207119B2, “Ophthalmological composition” (Nihon Tenganyaku Kenkyusho Co., Ltd., priority 2002, dated 2012).

What was measured:
[1] = system: rabbit corneal wound model; assay: Corneal wound healing promotion action 1 (in vivo), approx. 6 mm corneal epithelial abrasion; set-up: species or system Japanese white rabbit; conditions: 5 μM eye drop, 30 μl per instillation; 0 hr after abrasion; mean ± SD, n=6
Experimental: (2) Corneal Wound Healing Promotion Action 1 (In Vivo)
Using a male Japanese white rabbit, a wound of approximately 6 mm in diameter was produced in the cornea by inducing corneal epithelial abrasion in accordance with the method of Cintron et al. (Ophthalmic Res., 11, pp. 90-96 (1979)). The wound area was measured using the fluorescein-stained area as an index. The effects of the test compound on corneal wound healing were examined.
The eye drops containing the respective concentrations of the test compound were instilled (30 μl at a time) at 0, 3, 6, 9, 12, 18, 24, 27, 30, 33, 36, 42, and 48 hours after inducing corneal epithelial abrasion. In measuring the wound area, fluorescein staining was carried out and a photograph of the cornea was measured. The fluorescein-stained area of the photographed cornea was computed using an image analysis processing system.
In Tables 1 and 2, the respective values indicate the mean value±standard deviation (n=6). Statistical analysis was carried out using Dunnett's multiple comparison with respect to PBS with the area of the corneal wound portion immediately after (0 hours after) corneal epithelial abrasion being set to 100% (*p<0.05, **p<0.01; vs. control).

[2] = system: rabbit corneal wound model; assay: Corneal wound healing promotion action 2 (in vivo), approx. 8 mm corneal epithelial abrasion; set-up: species or system Japanese white rabbit; conditions: 0.3% eye drop, 25 μl per instillation; 0 hr after abrasion; mean ± SD, n=6
Experimental: (3) Corneal Wound Healing Promotion Action 2 (In vivo)
Using the same method as (2) above, corneal epithelial abrasion was induced in a Japanese white rabbit to produce a wound of approximately 8 mm in diameter in the cornea. The wound area was measured using the fluorescein-stained area as an index to examine the effects on corneal wound healing.
The eye drops containing the respective concentrations of the test compound were instilled (25 μl at a time) at 0, 6, 12, 18, 24, 30, 36, 42, 48, and 54 hours after induction corneal epithelial abrasion. In measuring the wound area, fluorescein staining was carried out and a photograph of the cornea was measured. The fluorescein-stained area of the photographed cornea was computed using an image analysis processing system.
In Tables 3 and 4, the respective values indicate the mean value±standard deviation (n=6). Statistical analysis was carried out using Dunnett's multiple comparison with respect to physiological saline with the area of the corneal wound portion immediately after (0 hours after) corneal epithelial abrasion being set to 100% (*p<0.05, **p<0.01; vs. control).

Row | Substance | Healing ratio (%) [1] [%] | Healing ratio (%) [2] [%]
1 | EGF: polypeptide with a molecular weight of 6000, mitosis-promoting growth factor for corneal epithelium (NSDSECPLSHDGYCLHDGVCMYIEALDKYACNCVVGYIGERCQYRDLKWWELR; Epidermal growth factor; UniProt P01133 971-1023, looked up) | 0 | 
2 | hyaluronic acid |  | 0
